The subject of this assay is acetic acid induced writhing syndrome. Briefly: acetic acid induced writhing syndrome in mice. It counts as in vivo, mice (NMRI). As to conditions: for ED50: Mus musculus, sc, dose giving 50 per cent protection against writhings, s.c. 30 minutes before acetic acid 0.5 per cent i.p., writhings counted 5-15 minutes after; for inhibition (ED50 table): s.c. 30 minutes before acetic acid. The procedure:
The pharmaceutical properties of the compounds of the invention can be illustrated by determining their capability to antagonize the acetic acid induced writhing syndrome in mice.
In mice i.p. injection of acetic acid induces a writhing syndrome which is antagonized by analgesics (Siegmund et al., Proc. Soc. exp. Biol. 95, 729-731 (1957); Eckhardt et al., Proc. Soc. exp. Biol. 98, 186-188 (1958).
Test procedure: Acetic acid 0.5 per cent is injected i.p. (0.15 ml/10g body weight) to 6 mice (NMRI, either sex weighing 20-25 g) pretreated with physiological saline (controls) and to 6 mice pretreated with test substance. In the controls acetic acid induces a syndrome characterized by contraction of abdomen, turning of trunk and extension of hind limbs. Saline and test substances are administered s.c. 30 minutes before acetic acid. The number of writhings is counted 5-15 minutes after injection of acetic acid. The activity is expressed as per cent protection=
(Control drug)/Control×100
The effect of active substances is evaluated by a dose response curve, log dose on the abscissa, and per cent protection on the ordinate. The potency is expressed as the dose (ED50) in mg/kg giving 50 per cent protection against writhings. Test results obtained by testing some compounds of the invention will appear from the following table.
A general note: In writhing tests, fewer writhes than in controls are read as antinociception.

In turn, `CCOC(=O)C1(c2ccccc2)CCN(C)CC1` [Pethidine, reference compound] registered a 50% effective dose (ED50) of 9.25 mg/kg.
On the same count and under the same terms, the figure for `Cc1noc(C2(c3ccccc3)CCN(C)CC2)n1.Cl` [Compound 1, 1-Methyl-4-(3-methyl-1,2,4-oxadiazol-5-yl)-4-phenylpiperidine hydrochloride] is 5.7 mg/kg.
As to `c1ccc(C2(c3nc(C4CC4)no3)CCNCC2)cc1` [Compound 13, 4-(3-cyclopropyl-1,2,4-oxadiazol-5-yl)-4-phenylpiperidine], it took a dose of 2.9 mg/kg to reach the 50% effect level (ED50).
Take `O=C(O)C(=O)O.c1ccc(OCCCCN2CCC(c3ccccc3)(c3nc(C4CC4)no3)CC2)cc1` [Compound 16, 4-(3-cyclopropyl-1,2,4-oxadiazol-5-yl)-1-(4-phenoxybutyl)-4-phenylpiperidine oxalate]: the “inhibition (ED50 table)” value (at 10 (table head mg/kg)) worked out at 34%.
For `CON=CC1(c2ccccc2)CCN(C)CC1.O=C(O)C(=O)O` [Compound 10, 4-Methoxyiminomethyl-1-methyl-4-phenyl-piperidine oxalate], the ED50 was found to be 3.2 mg/kg.
Turning to `CN1CCC(c2ccccc2)(c2nc(-c3ccccc3)no2)CC1` [Compound 3, 1-methyl-4-(3-phenyl-1,2,4-oxadiazol-5-yl)-4-phenylpiperidine], for the setting “at 3 (table head mg/kg)”, the “inhibition (ED50 table)” value was determined as 41%.
For the compound `COCc1noc(C2(c3ccccc3)CCN(C)CC2)n1.Cl` [Compound 4, 1-methyl-4-(3-methoxymethyl-1,2,4-oxadiazol-5-yl)-4-phenylpiperidine hydrochloride], the median effective dose (ED50) was found to be 3 mg/kg.
As to `CN1CCC(c2ccccc2)(c2nc(C3CC3)no2)CC1.Cl` [Compound 2, 1-methyl-4-(3-cyclopropyl-1,2,4-oxadiazol-5-yl)-4-phenylpiperidine hydrochloride], the ED50 was found to be 7.6 mg/kg.

The ED50 is the dose at which the effect has come halfway, by size or by number of responders.

The values are drawn from patent publication US4845095A, “4-phenylpiperidine compounds and their use” (A/S Ferrosan, priority 1987, dated 1989).
